Laboratory results taken from ChEMBL document CHEMBL1909294, “Translating clinical findings into knowledge in drug safety evaluation--drug induced liver injury prediction system (DILIps)” (PLoS Comput Biol, 2011).

Legend:
[1] = test system: Hepatotoxicity;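 for HepSE bilirubinemia: bilirubinemia hepatic side effect score drawn from the DILIps training data, a prediction system for drug-induced liver injury; call rule not given here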;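 for HepSE cholecystitis: Cholecystitis-related hepatic side effect score drawn from the DILIps (drug-induced liver injury prediction) training data set; call rule not given here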;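 for HepSE cirrhosis: cirrhosis hepatic side effect score taken from the DILIps (drug-induced liver injury prediction) training set; call rule not given here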; for HepSE hepatic failure: call rule not given here;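 for HepSE jaundice: Jaundice-related hepatic side-effect score drawn from the training data of the DILIps (drug-induced liver injury prediction system); call rule not given here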; for HepSE liver disease: call rule not given here;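 for HepSE liver fatty: hepatic side effect score for fatty liver, taken from the DILIps training set for predicting drug-induced liver injury; call rule not given here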
[2] = test system: Hepatotoxicity; remark: listed apart in the source;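 for HepSE bilirubinemia: bilirubinemia hepatic side effect score drawn from the DILIps training data, a prediction system for drug-induced liver injury; call rule not given here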;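 for HepSE cholecystitis: Cholecystitis-related hepatic side effect score drawn from the DILIps (drug-induced liver injury prediction) training data set; call rule not given here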;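 for HepSE cirrhosis: cirrhosis hepatic side effect score taken from the DILIps (drug-induced liver injury prediction) training set; call rule not given here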; for HepSE hepatic failure: call rule not given here;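 for HepSE jaundice: Jaundice-related hepatic side-effect score drawn from the training data of the DILIps (drug-induced liver injury prediction system); call rule not given here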; for HepSE liver disease: call rule not given here;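 for HepSE liver fatty: hepatic side effect score for fatty liver, taken from the DILIps training set for predicting drug-induced liver injury; call rule not given here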
[3] = test system: Hepatotoxicity; remark: listed apart in the source;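 for HepSE bilirubinemia: bilirubinemia hepatic side effect score drawn from the DILIps training data, a prediction system for drug-induced liver injury; call rule not given here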;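 for HepSE cholecystitis: Cholecystitis-related hepatic side effect score drawn from the DILIps (drug-induced liver injury prediction) training data set; call rule not given here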;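 for HepSE cirrhosis: cirrhosis hepatic side effect score taken from the DILIps (drug-induced liver injury prediction) training set; call rule not given here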; for HepSE hepatic failure: call rule not given here;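 for HepSE jaundice: Jaundice-related hepatic side-effect score drawn from the training data of the DILIps (drug-induced liver injury prediction system); call rule not given here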; for HepSE liver disease: call rule not given here;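 for HepSE liver fatty: hepatic side effect score for fatty liver, taken from the DILIps training set for predicting drug-induced liver injury; call rule not given here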
[4] = test system: Hepatotoxicity; remark: listed apart in the source;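 for HepSE bilirubinemia: bilirubinemia hepatic side effect score drawn from the DILIps training data, a prediction system for drug-induced liver injury; call rule not given here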;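 for HepSE cholecystitis: Cholecystitis-related hepatic side effect score drawn from the DILIps (drug-induced liver injury prediction) training data set; call rule not given here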;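 for HepSE cirrhosis: cirrhosis hepatic side effect score taken from the DILIps (drug-induced liver injury prediction) training set; call rule not given here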; for HepSE hepatic failure: call rule not given here;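 for HepSE jaundice: Jaundice-related hepatic side-effect score drawn from the training data of the DILIps (drug-induced liver injury prediction system); call rule not given here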; for HepSE liver disease: call rule not given here;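 for HepSE liver fatty: hepatic side effect score for fatty liver, taken from the DILIps training set for predicting drug-induced liver injury; call rule not given here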
[5] = test system: Hepatotoxicity; remark: listed apart in the source; for HepSE hepatic failure: call rule not given here; for HepSE liver disease: call rule not given here
[6] = test system: Hepatotoxicity; remark: listed apart in the source; for HepSE hepatic failure: call rule not given here; for HepSE liver disease: call rule not given here
[7] = test system: Hepatotoxicity; remark: listed apart in the source
[8] = test system: Hepatotoxicity; remark: listed apart in the source
[9] = test system: Hepatotoxicity; remark: listed apart in the source
[10] = test system: Hepatotoxicity; remark: listed apart in the source
[11] = test system: Hepatotoxicity; remark: listed apart in the source
[12] = test system: Hepatotoxicity; remark: listed apart in the source
[13] = test system: Hepatotoxicity; remark: listed apart in the source
[14] = test system: Hepatotoxicity; remark: listed apart in the source

Row | Compound | HepSE_jaundice [1] | HepSE_liver disease [2] | HepSE_cholecystitis [3] | HepSE_hepatic failure [4] | HepSE_cirrhosis [5] | HepSE_liver fatty [6] | HepSE_bilirubinemia [7] | HepSE_hepatomegaly [8] | HepSE_Combined Scores [9] | HepSE_elevated liver function tests [10] | HepSE_liver function tests abnormal [11] | HepSE_hepatitis [12] | HepSE_cholelithiasis [13] | HepSE_hepatic necrosis [14]
1 | CCOC(=O)[C@H](CCc1ccccc1)N[C@H]1CCCN2CCC[C@@H](C(=O)O)N2C1=O [CILAZAPRIL] | 0 | 0 | 0 | 0 | 0 | 0 | 0 | 0 | 1 | 0 | 0 | 1 | 0 | 0
2 | CCCC1O[C@@H]2C[C@H]3[C@@H]4CCC5=CC(=O)C=C[C@]5(C)[C@H]4[C@@H](O)C[C@]3(C)[C@]2(C(=O)CO)O1 (stereo partly drawn) [BUDESONIDE] | 0 | 0 | 0 | 0 | 0 | 0 | 0 | 0 | 0 | 0 | 0 | 0 | 0 | 0
3 | N[C@@H](Cc1cc(I)c(Oc2ccc(O)c(I)c2)c(I)c1)C(=O)O [LIOTHYRONINE] | 0 | 0 | 0 | 0 | 0 | 0 | 0 | 0 | 0 | 0 | 0 | 0 | 0 | 0
4 | Clc1ccc(C(c2ccccc2Cl)C(Cl)Cl)cc1 (stereo not drawn) [MITOTANE] | 0 | 0 | 0 | 0 | 0 | 0 | 0 | 0 | 0 | 0 | 0 | 0 | 0 | 0
5 | NCCCC(=O)O [GAMMA-AMINOBUTYRIC ACID] | 0 | 0 | 0 | 0 | 0 | 0 | 0 | 0 | 0 | 0 | 0 | 0 | 0 | 0
6 | UROFOLLITROPIN | 0 | 0 | 0 | 0 | 0 | 0 | 0 | 0 | 0 | 0 | 0 | 0 | 0 | 0
7 | NC[C@H](O)c1ccc(O)c(O)c1 [NOREPINEPHRINE] | 0 | 0 | 0 | 0 | 0 | 0 | 0 | 0 | 0 | 0 | 0 | 0 | 0 | 0
